Reference: PMC10609273, “Radiosynthesis and Early Evaluation of a Positron Emission Tomography Imaging Probe [^18F]AGAL Targeting Alpha-Galactosidase A Enzyme for Fabry Disease” (Molecules, 2023)

How the values were obtained:
Type in all cases: in vitro ADME
[1] = Plasma stability study, human; details: pooled plasma, 37 °C, read-out: Plasma Half-Life, t1/2
Description: (§1) Briefly, plasma stability was assessed by incubating compounds in the presence of human (pooled) and mouse (pooled) plasma (Bioreclamation, Westbury, NY, USA). All chemicals and reagents including control compounds were purchased from commercial sources such as Sigma-Aldrich or Toronto Research Chemicals. Plasma incubations were conducted by placing plasma (95 μL) in a 96-well microtiter plate and warming to 37 °C for 5 min. The reaction was initiated with the addition of the test article (5 μL of 20 μM), totaling 100 μL in incubation volume. At 0, 15, 30, 60, and 120 min time points, the reactions were terminated with the addition of acetonitrile-containing carbutamide (as an internal standard). The terminated samples were then centrifuged at 2 °C to pellet the protein, and the supernatant was injected onto an LC–MS. The test article was monitored for loss over time and the t1/2 was determined.

[2] = Plasma stability study, mouse; details: mouse, pooled plasma, 37 °C, read-out: Plasma Half-Life, t1/2
Description: as §1

[3] = Bidirectional permeability in Caco-2 cells; details: human, Caco-2, 5 µM, alone; for efflux ratio at 60 min, 5 µM: read-out: Ratio (B/A), efflux ratio
Description: The Caco-2 cell culture and bidirectional permeability assays used in the study were adapted from previous studies at Takeda. Briefly, Caco-2 cells were obtained from American Type Culture Collection (ATCC) (Manassas, VA, USA) and were cultured in 175 cm^2 tissue culture T-flasks (Corning Life Sciences, Corning, NY, USA). For bidirectional permeability assays, cells were plated onto Costar 24-well culture plates (0.33 cm^2/well, […] (Corning Life Sciences, Corning, NY, USA) by adding 1 × 10^5 cells suspended in 0.2 mL of culture medium (Dulbecco’s modified Eagle’s medium [DMEM] with 0.1 mM non-essential amino acids, 2 mM L-glutamine, 4.5 g/L glucose, and 10% fetal bovine serum [FBS]) to the upper chamber of each well of the 24-well transwell plate. Cell-free culture medium (40 mL) was added to the lower chamber reservoir (Corning Life Sciences, Corning, NY, USA). The transwell plates were then incubated at 37 °C in an atmosphere of 5% CO2 for 25 days to ensure complete enterocyte-like differentiation of the cells, and the culture medium was changed every three to four days during the incubation period. Cell monolayers with transepithelial electrical resistance (TEER) values > 250 ohms × cm^2 were used for the bidirectional permeability assays.
All chemicals and reagents including control compounds were purchased from commercial sources such as Sigma-Aldrich or synthesized in house (pevonedistat and LY335979). Bidirectional transport studies were performed at 37 °C. Before each experiment, the confluent cell monolayers on transwell inserts were washed and equilibrated for 30 min with transport media (Hank’s Balanced Salt Solution [HBSS] containing 25 mM 4-(2-hydroxyethyl)-1-piperazineethanesulfonic acid [HEPES] and 10 mM glucose, pH 7.4 or 6.5). The bidirectional permeability of 5 µM of the cyclohexane derivative was assessed alone or in the presence of 5 µM LY335979, 5 µM K0143, or 10 µM Elacridar to inhibit P-gp, BCRP, and both efflux transporters, respectively. Additionally, the bi-directional permeability of 5 µM solutions of nadolol (low permeable control marker), minoxidil (high permeable marker), propranolol (high permeable marker), and pevonedistat (efflux transporter control) was also assessed. The experiment was initiated by adding a solution containing the test compounds and LY335979 to either the apical (for apical-to-basolateral [A-to-B] transport) or basolateral (for basolateral-to-apical [B-to-A] transport) compartment. Lucifer yellow (50 µM) was added to each donor chamber in the experiment to serve as a paracellular transport control and to monitor cell monolayer integrity. The apical volume was 0.2 mL and the basolateral volume was 1.0 mL. Bovine serum albumin (BSA, Sigma Aldrich) (5%) was added to the transport media on the receiver side to prevent non-specific binding of the test compound to the polystyrene well. After the addition of test compound into the donor side, […] of the receiving solution were withdrawn from the receiver side at 30 and 60 min. A […] of fresh transport media was immediately added to the receiver side at 30 and 60 min. The samples were placed into 96-well black plates (PerkinElmer Life Sciences, Boston, MA, USA) for fluorescence measurement (excitation at 450 nm and emission at 535 nm). After this measurement, the amounts of cyclohexane derivative and control compounds in each sample were quantified with liquid chromatography–mass spectrometry (LC–MS). The time course of drug transported across cell monolayers was analyzed to determine the time and rate of steady-state flux. The transport rate (total amount of drug present in the receiver chamber per unit time), Papp, and efflux ratio were calculated as described in Equations (4) and (5). […]

[4] = In vitro liver microsomal metabolism study, rat; details: rat liver microsomes
Description: (§2) Metabolic stability was assessed by incubating compounds in the presence of human, rat, and mouse liver microsomal fractions (Xenotech, Kansas City, KS, USA). All chemicals and reagents, including control compounds, were purchased from commercial sources such as Sigma-Aldrich (St. Louis, MO, USA) or Toronto Research Chemicals (North York, ON, Canada). Liver microsomal incubations were conducted with 100 mM phosphate buffer, 0.5 mg/mL of liver microsomal protein, 2 mM NADPH, 2.5 mM UDPGA, 3 mM MgCl2, alamethicin, and 1 μM test article for a total incubation volume of 80 µL. All reagents except the liver microsomes were mixed together and aliquoted (60 μL) into 96-well plates. The reaction was initiated by adding the microsomes (20 μL). At 0, 3, 7, 12, 20, and 30 min time points, the reactions were terminated with the addition of acetonitrile-containing carbutamide (as an internal standard). The terminated samples were then centrifuged at 2 °C to pellet the protein and the supernatant was injected onto an LC–MS. The test article was monitored for loss over time and the t1/2 was determined. The calculated t1/2 was then used as described below to determine the Eh (hepatic extraction ratio) for both human and rat.
(§3) The intrinsic clearance (CLint), hepatic clearance (CLh), and hepatic extraction ratio (Eh) were calculated using the equations below. CLint = (0.693/t1/2 in vitro) × (mL incubation volume/mg microsomal protein) × (X mg of microsomal protein/gram of liver) × (Y g of liver/kg of body weight)(1) CLh = Q × CLint/Q + CLint(2) Eh = CLh/Q(3) where: • CLint = intrinsic clearance (calculated from microsomal incubations) • X = 40 for human, 41.5 for rat and 45 for mouse • Y = 21.4 for human, 40 for rat and 50 for mouse • t1/2 = half-life • CLh = hepatic clearance • Q = liver blood flow rate = 1.24 L/h/kg for human, 4.8 L/h/kg for rat, and 5.4 L/h/kg for mouse • Eh = hepatic extraction ratio • CLh = hepatic clearance

[5] = In vitro liver microsomal metabolism study, mouse; details: mouse liver microsomes
Description: as §2, §3

[6] = In vitro liver microsomal metabolism study, human; details: human liver microsomes
Description: as §2, §3

Compound: CCOC(=O)[C@H](CCc1ccccc1)N[C@@H](C)C(=O)N1CCC[C@H]1C(=O)O [Enalapril, reference compound]
- half-life at 1 µM [1]: 283 min
- half-life at 1 µM [2]: 30.6 min

Compound: CC(C)(C)NCC(O)COc1cccc2c1CC(O)C(O)C2 (stereo not shown) [Nadolol, reference compound]
- Papp A→B at 60 min, 5 µM [3]: 0.36 ×10⁻⁶ cm/s
- Papp B→A at 60 min, 5 µM [3]: 1.45 ×10⁻⁶ cm/s
- efflux ratio at 60 min, 5 µM [3]: 4.1

Compound: CC(C)NCC(O)COc1cccc2ccccc12 (stereo not shown) [Propranolol, reference compound]
- Papp A→B at 60 min, 5 µM [3]: 43.7 ×10⁻⁶ cm/s
- Papp B→A at 60 min, 5 µM [3]: 44.4 ×10⁻⁶ cm/s
- efflux ratio at 60 min, 5 µM [3]: 1

Compound: NS(=O)(=O)OC[C@@H]1C[C@@H](n2ccc3c(N[C@H]4CCc5ccccc54)ncnc32)C[C@@H]1O [Pevonedistat, reference compound]
- Papp A→B at 60 min, 5 µM [3]: 3.37 ×10⁻⁶ cm/s
- Papp B→A at 60 min, 5 µM [3]: 63.4 ×10⁻⁶ cm/s
- efflux ratio at 60 min, 5 µM [3]: 18.8

Compound: COc1ccc2c(c1)[C@]13CCCC[C@@H]1[C@H](C2)N(C)CC3 [Dextromethorphan, reference compound]
- CLh [4]: 4.27 L/h/kg
- Eh (hepatic extraction ratio) [4]: 0.889
- CLint scaled at 1 µM ([4]; 1 μM, NADPH + UDPGA): 642 mL/min/kg
- CLh [5]: 4.64 L/h/kg
- Eh (hepatic extraction ratio) [5]: 0.860
- CLint scaled at 1 µM ([5]; 1 μM, NADPH + UDPGA): 552 mL/min/kg
- CLh [6]: 0.838 L/h/kg
- Eh (hepatic extraction ratio) [6]: 0.676
- CLint scaled at 1 µM ([6]; 1 μM, NADPH + UDPGA): 43.2 mL/min/kg

Compound: Nc1cc(N2CCCCC2)nc(N)[n+]1[O-] [Minoxidil, reference compound]
- Papp A→B at 60 min, 5 µM [3]: 7.81 ×10⁻⁶ cm/s
- Papp B→A at 60 min, 5 µM [3]: 9.78 ×10⁻⁶ cm/s
- efflux ratio at 60 min, 5 µM [3]: 1.3

Compound: CC(C)[N+](C)(CCOC(=O)C1c2ccccc2Oc2ccccc21)C(C)C [Propantheline, reference compound]
- half-life at 1 µM [1]: 7.22 min
- half-life at 1 µM [2]: 26 min
